According to patent US4020111A, “Propynyloxy alkyl arene insecticides” (priority 1975, dated 1977):

Experiments:
[1] = test system: German male cockroaches (Blatella Germanicus); experiment: topical application to thorax, 24 hour mortality of German male cockroaches; type: in vivo, German cockroach (Blatella Germanicus)
Protocol: The synergistic effect with mobam of synergist compounds I-B, II-H, II-K and IV-C is further illustrated by the 24 hour mortality data of German male cockroaches (Blatella Germanicus) shown in Table XXXX. The synergists and insecticide were diluted in acetone and applied in small droplets to the thorax of the insect. These doses of synergist alone gave zero percent insect mortality.
The synergistic effect with GS 13005 of compounds I-B, II-H, II-K, II-P, II-Q, II-R and IV-C is illustrated by the 24 hour mortality of German male cockroaches shown in Table XXXXI. These doses of synergist alone caused zero percent insect mortality.

mice [2] = experiment: extension of Secobarbital sleeping time by synergists; type: in vivo, Swiss albino white male mice; conditions: Secobarbital 37 mg/K; for Relative Sleeping Time: treated/control
Protocol: (§1) The selectivity of the synergist compounds of this invention is illustrated by the results of sleeping-time extension tests and of acute toxicity tests on Swiss albino white male mice.
(§2) The effect of various synergist compounds on sleeping time of sodium secobarbital [Secobarbital] and of 3,3-diethyl-5-methyl-2,4-dioxypiperidine [Noludar] was determined by administering the drug, with and without synergist, to approximately 38-day old male mice weighing from 25 to 30 grams. Synergists were administered in each of two doses, 74.0 mg/kg (dilution being 2.0 mg/0.1 ml corn oil), and 110.0 mg/kg (dilution 3.0 mg/0.1 ml oil). Secobarbital was administered at a dose of 37.0 mg/kg (dilution 1.0 mg/0.1 ml water). Noludar was administered at a dose of 110.0 mg/kg (dilution 3.0 mg/0.1 ml water). The synergist was administered one hour prior to administration of the Secobarbital or Noludar. Secobarbital and Noludar sleeping times were obtained for both the control (drug only) and the treated (synergist plus drug) mice by noting the time lapse between the administration of the drug and the recovery of the righting reflex, i.e. when the animal regains conciousness and can walk up an inclined wooden tray with coordination. The relative sleeping time (R.S.) was noted. The R.S. is the extended sleeping time in the treated mice (synergist plus drug) divided by the sleeping time in the control mice (drug only). The mean sleeping time for the treated mice and the R.S. are shown on Table XXXXIV for various synergist compounds.

mice [3] = experiment: extension of Noludar sleeping time by synergists; type: in vivo, Swiss albino white male mice; conditions: Noludar 110 mg/K, synergist 110 mg/K; for Relative Sleeping Time: treated/control
Protocol: as §1, §2

mice [4] = experiment: synergism of acute toxicity of Dimetilan, GS 13005, Secobarbital and Methadone (intraperitoneal); type: in vivo, Swiss albino white male mice; conditions: 48 hours
Protocol: The synergism of the acute toxicity of Dimetilan by various synergists was determined by tests on Swiss albino, white male mice aged 5 to 6 weeks and weighing 23 to 27 grams. The synergists and insecticides were dissolved in corn oil and the drugs were dissolved in distilled water. All compounds were administered intraperitoneally by injection in the lower quadrent of the abdomen. The synergist was administered in 0.1 ml of corn oil 1 hour prior to administration of the insecticide. Eight mice were treated, per dosage, with each synergist. The mice were watched for a minimum of 6 hours while held in a glass jar with bedding individually after intraperitoneal injection of the test solutions. Lethality was noted, the animals were weighed and transferred in cages, and food and water were supplied. Control mice were given 0.1 ml of corn oil at the time of administration of the synergist to the test mice and 0.1 ml corn oil plus Dimetilan at the time of administration of the insecticide to the test mice.
By the same procedure, the synergism of acute toxicity of GS 13005, Secobarbital and 6-dimethylamino-4,4-diphenyl-3-heptanone [Methadone] was determined.

[5] = test system: polyvalent resistant (CH strain) houseflies; experiment: whole plant or invertebrate; type: in vivo, housefly (CH strain); conditions: Musca domestica, topical, 24 h, read-out: mortality, insecticide used without synergist
Protocol: The effect of O-(2-propynyl) oximes with Dimetilan and with GS 13798 was obtained from tests on polyvalent resistant (CH strain) houseflies that had been chilled and to the dorsal region of which was applied an acetone solution of synergist and insecticide at a ratio of two to one. Duplicate tests were performed using 10 four to five-day old female houseflies per test. After dosage, the flies were put in a plastic petri dish with cotton soaked in a sugar-water solution. These doses of insecticide used without synergist caused 10-40% mortality.
(§3) In Table IX, and in the tables following it, the doses of topically applied insecticides and of synergists unless otherwise noted are expressed as micrograms per fly (μg/fly).
The effect of compounds II-C, II-D and II-E with Dimetilan and GS 13798 was determined, following the procedure of Example 5, from tests on polyvalent resistant (CH strain) houseflies. These doses of insecticide used without synergist caused 10-40% mortality.
(§4) The synergistic effect with GS 13005 of compounds I-A, I-B, I-D, I-E, I-F, I-G and I-I was determined from topical application tests to IN/WHO strain, Rutgers A strain and polyvalent CH strain houseflies using the procedures of Example 5. The percent kills of the IN/WHO strain flies after 24 hours are shown in Table XXVIII; of the Rutgers A strain, in Table XXIX; and of the polyvalent CH strain, in Table XXX. The doses of insecticide alone to the CH strain files caused 10-40% mortality.
(§5) The synergistic effect with Diazinon and GS 13005 of various of the benzyl 2-propynyl ethers identified in Tables II and IIa was determined by topical application tests on IN/WHO strain, and Rutgers A strain and polyvalent, resistant, CH strain houseflies using the procedures of Example 5. The percent kills after 24 hours of IN/WHO strain flies are shown in Table XXXI; of Rutgers A strain flies, in Table XXXII; and of CH strain flies, in Table XXXIII. The doses of insecticide alone to the CH strain flies caused 10-40% mortality.
The synergistic effect with pyrethrum of various synergist compounds was determined by topical application tests on polyvalent, resistant CH strain houseflies following the procedure of Example 5. Application of the insecticide alone caused 10-40% mortality.

[6] = test system: IN/WHO strain house flies; experiment: topical application test, percent kill after 24 hours, IN/WHO strain; type: in vivo, house fly (susceptible IN/WHO strain)
Protocol: as §3
The synergistic effect of O-(2-propynyl) oximes with mobam was determined from topical application tests on susceptible, female, IN/WHO strain house flies and from tests on resistant, female, Rutgers A strain house flies. The synergist and insecticide were dissolved in ACS Grade acetone in such quantities that a 1.0μ liter volume applied to the thorax of 3-to-5 day old CO2 -anesthetized female adult house flies contained the desired dosage. After being treated, the flies were confined, 10 to a plaster petri dish, with 3-5 dishes/treatment, and held for 24-hr. observation of mortality. Reconstituted skim milk on cotton dental wicks was provided during the holding period. The percent kills after 24 hours are shown in Table X for the IN/WHO strain and Table XI for the Rutgers A strain.
The synergistic effect of benzyl 2-propynyl ethers with mobam was determined from topical application tests on IN/WHO and Rutgers A strain houseflies, following the procedure of Example 5. The percent kills after 24 hours are shown in Table XIV for the IN/WHO strain and in Table XV for the Rutgers A strain.
The effects of varying the insecticide dose and the synergist-insecticide ratio are further illustrated, with synergist compounds II-D, II-E, II-F and Mobam insecticide, in Tables XVI, XVII and XVIII.
The synergistic effect on IN/WHO flies of synergist compound II-K with Dimetilan, pyrolan, Baygon and HRS 1422 is illustrated by the 24 hour percent mortality data in Tables XIX, XX and XXI.
The effect on IN/WHO flies of synergist compound IV-C, identified in Table IV, with mobam was determined by the topical application procedure of Example 5.
The synergistic effect with Diazinon of compounds I-B, I-D, I-F, I-G, I-H and I-I, identified in Tables I and Ia, was determined from topical application tests on IN/WHO strain houseflies and on Rutgers A strain houseflies by the procedure of Example 5. The percent kills after 24 hours are shown in Table XXV for the IN/WHO strain and Table XXVI for the Rutgers A strain.
as §4, §5
The synergist effect on IN/WHO flies of synergist compound II-K with Gardona and Bidrin is illustrated by the 24 hour percent mortality data in Tables XXXIV and XXXV.
The synergistic effect on IN/WHO strain flies and Rutgers A strain flies of compound IV-C with GS 13005 and with Diazinon was determined by the topical application procedure of Example 5. The percent kills of IN/WHO strain flies after 24 hours are shown in Tables XXXVI and XXXVII; the percent kills of Rutgers A strain flies are shown in Tables XXXVIII and XXXIX.

mice [7] = experiment: acute toxicity of Dimetilan alone and of synergist alone (intraperitoneal); type: in vivo, Swiss albino white male mice; conditions: for Lethality (number of mice dead): 48 hours, of eight mice
Protocol: To determine the acute toxicity of dimetilan alone, eight dosage levels of Dimetilan, ranging from 4 to 32 mg per kg wer applied to eight, Swiss, albino, white, male mice per dosage level. The mice weighed approximately 23 to 27 grams and were five to size weeks old. The Dimetilan was administered intraperitoneally in 0.1 ml of corn oil one hour after the administration of the same dose of corn oil alone.
To determine the acute toxicity of the synergist alone, various synergists were administered intraperitoneally at a dose of 1000 mg/kg to each of a group of eight mice. The number of animals dead at the end of 72 hours is reported in the left hand column of Table XXXXVI.

[8] = test system: Wilson strain house flies; type: in vivo, house fly (susceptible Wilson strain)
Protocol: The required solutions of the insecticide and of the synergist compound were prepared in acetone at a concentration of one milligram per milliliter. One-pint wide mouth glass jars were coated wiith the appropriate insecticide-synergist combination by rolling the jars containing aliquots of the appropriate solutions diluted to three milliliters with acetone to deposit, by evaporation, a film of the test materials. The flies were transferred under carbon dioxide anesthesia and held in the jar at room temperature. Perforated aluminum foil was used to cover the jars and to hold cotton saturated with 10% sugar solution. Counts were made at intervals, but the recorded mortality was based on 24-hour kill, rather than knockdown. All prostrate nonmoving flies were considered dead. A determination was then made of the contact synergistic ratio [SR], which is the ratio of the LC50 of insecticide alone to the LC50 of the insecticide when applied together with the synergist. The LC50 of the insecticide was estimated from a log-probit plot of percent kill versus dosage. […] The LC50 of the combination of insecticide and synergist was determined at a synergist to insecticide parts by weight ratio of five to one.

[9] = synergist alone at doses of Table XXXXI
[10] = Dimetilan 8 mg/kg + synergist 80 mg/kg ip, of eight mice
[11] = Dimetilan 8 mg/kg + synergist 240 mg/kg ip, of eight mice
[12] = synergist alone at doses of Table XXXX

Structure (SMILES) | insect mortality, synergist alone [1, 9] | Mean Sleeping Time (mice [2]; synergist 74 mg/K) [min] | Relative Sleeping Time (mice [2]; synergist 74 mg/K) | Mean Sleeping Time (mice [2]; synergist 110 mg/K) [min] | Relative Sleeping Time (mice [2]; synergist 110 mg/K) | Mean Sleeping Time (mice [3]) [min] | Relative Sleeping Time (mice [3]) | number of mice dead (mice [4]; [10]) | number of mice dead (mice [4]; [11]) | insect mortality, synergist alone [1, 12] | other results
C#CCOCc1cccc2ccccc12 [II-R, α-naphthylmethyl 2-propynyl ether] | zero | 35 | 1.2 | 96 | 1.6 | 49 | 1.7 | 0 | 2 |  | 
Cc1cc(OC(=O)N(C)C)nn1C(=O)N(C)C [Dimetilan, 1-(dimethylcarbamoyl)-5-methyl-3-pyrazolyl dimethylcarbamate] |  |  |  |  |  |  |  |  |  |  | mortality at 2 µg/fly [5]: 10 to 40%; 24 hour percent mortality ([6]; Dimetilan alone 0.031 μg/fly): 0%; 24 hour percent mortality ([6]; Dimetilan alone 0.063 μg/fly): 17%; 24 hour percent mortality ([6]; Dimetilan alone 0.13 μg/fly): 43%; 24 hour percent mortality ([6]; Dimetilan alone 0.25 μg/fly): 100%; Lethality (number of mice dead) (mice [7]; Dimetilan alone 4.0 mg/kg ip): 0; Lethality (number of mice dead) (mice [7]; Dimetilan alone 8.0 mg/kg ip): 0; Lethality (number of mice dead) (mice [7]; Dimetilan alone 12.0 mg/kg ip): 1; Lethality (number of mice dead) (mice [7]; Dimetilan alone 16.0 mg/kg ip): 3; Lethality (number of mice dead) (mice [7]; Dimetilan alone 20.0 mg/kg ip): 4; Lethality (number of mice dead) (mice [7]; Dimetilan alone 24.0 mg/kg ip): 7; Lethality (number of mice dead) (mice [7]; Dimetilan alone 28.0 mg/kg ip): 8; Lethality (number of mice dead) (mice [7]; Dimetilan alone 32.0 mg/kg ip): 8; dose level just below that at which Dimetilan alone showed lethality (mice [7]; mice, ip): 8 mg/kg; number of mice dead (mice [4]; control: Dimetilan 8 mg/kg with 0.1 ml oil, 80 mg/kg): 0; number of mice dead (mice [4]; control: Dimetilan 8 mg/kg with 0.1 ml oil, 240 mg/kg): 0
C#CCON=Cc1cccc([N+](=O)[O-])c1 [I-B] | zero | 54 | 1.5 | 106 | 1.7 | 70 | 2.4 | 1 | 6 | zero | Contact Synergistic Ratio, Carbaryl (LC50 insecticide alone / LC50 with synergist) ([8]; in vivo): 270; Contact Synergistic Ratio, Pyrolan (LC50 insecticide alone / LC50 with synergist) ([8]; pyrolan, synergist to insecticide 5:1 by weight, 24 h): 35
C#CCOC(c1ccc(Cl)cc1)C(C)[N+](=O)[O-] (stereo not drawn) [IV-C] | zero | 112 | 4.7 |  |  | 74 | 2.5 | 5 | 7 | zero | 
